Measurements published in PMC3991331, “Fragment screening reveals salicylic hydroxamic acid as an inhibitor of Trypanosoma brucei GPI GlcNAc-PI de-N-acetylase” (Carbohydrate Research, 2014).
Where two headings read alike, the source gives them in different places.

Columns and labels:
[1] = target: T. brucei de-N-acetylase (cell-free system) (Trypanosoma brucei, UniProt Q8I8A5); experiment: Mass spectrometry based activity assay, trypanosome cell-free system; assay type: biochemical; conditions: for ligand efficiency: from IC50 in cell-free system; for inhibition at 1000 µM: read-out: Inhibition at 1 mM (%)
Sequence of T. brucei de-N-acetylase (cell-free system) (Q8I8A5 entry or part of it): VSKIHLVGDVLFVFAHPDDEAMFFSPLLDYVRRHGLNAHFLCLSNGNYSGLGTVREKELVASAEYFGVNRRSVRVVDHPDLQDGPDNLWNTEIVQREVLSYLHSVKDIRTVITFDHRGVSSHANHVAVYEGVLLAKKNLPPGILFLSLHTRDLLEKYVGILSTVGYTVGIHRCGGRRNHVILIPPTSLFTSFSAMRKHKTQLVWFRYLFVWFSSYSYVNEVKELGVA
Procedure: Inhibition assays were performed in 100 μL final volume, with 1% v/v DMSO with or without inhibitor. […] Enriched glycolipids were analysed by liquid chromatography coupled to an electrospray tandem mass spectrometer (LC–MS/MS). Samples (40 μL) were injected on to a 10 × 1 mm C18 column (ACE, 5 μM) and eluted using a binary gradient of 5–80% propan-1-ol in 5 mM NH4OAc (Dionex Ultimate 3000). The gradient consisted of 2 min 0% B, 2–4 min 0–100% B, 4–8 min 100%, 8–9 min 100–0% B, 9–10 min 0% B where buffer A consisted of 5% propan-1-ol, 5 mM NH4OAc and buffer B 80% propan-1-ol, 5 mM NH4OAc. The glycolipids were analysed on an electrospray triple quadrapole mass spectrometer (Micromass Quattro Ultima) in multiple reaction monitoring mode. […] Inhibitor IC50 values were calculated using a four-parameter fit of eight-point potency curves derived from three independent experiments, and are quoted with standard deviation. […]

[2] = target: T1, recombinant T. brucei GlcNAc-PI de-N-acetylase (GST-TbGPI12) (Trypanosoma brucei, UniProt Q8I8A5); experiment: Mass spectrometry based activity assay, recombinant GST-TbGPI12; assay type: biochemical
T1 sequence (Q8I8A5 entry or part of it): as above
Procedure: Inhibition assays were performed in 100 μL final volume, with 1% v/v DMSO with or without inhibitor. […]. Enriched glycolipids were analysed by liquid chromatography coupled to an electrospray tandem mass spectrometer (LC–MS/MS). Samples (40 μL) were injected on to a 10 × 1 mm C18 column (ACE, 5 μM) and eluted using a binary gradient of 5–80% propan-1-ol in 5 mM NH4OAc (Dionex Ultimate 3000). The gradient consisted of 2 min 0% B, 2–4 min 0–100% B, 4–8 min 100%, 8–9 min 100–0% B, 9–10 min 0% B where buffer A consisted of 5% propan-1-ol, 5 mM NH4OAc and buffer B 80% propan-1-ol, 5 mM NH4OAc. The glycolipids were analysed on an electrospray triple quadrapole mass spectrometer (Micromass Quattro Ultima) in multiple reaction monitoring mode. The turnover of the substrate GlcNAc-IPC18 (m/z 715 > 223) to GlcN-IPC18 (m/z 672 > 223) was used to calculate the percentage of substrate conversion to product in a given sample.[6] Inhibitor IC50 values were calculated using a four-parameter fit of eight-point potency curves derived from three independent experiments, and are quoted with standard deviation. […]
Figure 2 T. brucei GlcNAc-PI de-N-acetylase inhibitors. The activity of the recombinant enzyme against the synthetic substrate D-glucosamine-α-(1-6)-D-myo-inositol-1-octadecyl phosphate was measured using a mass spectrometry based assay (A) Fragments were screened at 1 mM in duplicate. […]

[3] = test system: T. brucei GPI pathway (cell-free system); experiment: Trypanosome cell-free system assay, [3H]-mannose incorporation into GPI intermediates (HPTLC, fluorography); conditions: GlcNAc-IPC18 10 μM; GDP-[3H]-mannose; tested at 0, 100, 300, 1000 μM
Procedure: Trypanosome cell-free system assays, where the formation of GPI precursors is monitored by following the incorporation of [^3H]-mannose were analysed using high-performance liquid chromatography and fluorography as described previously.[13]
Priming the cell-free system with GlcAc-IPC18 in the presence of GDP-[^3H]-mannose stimulates the production of radiolabelled mannosylated GPI intermediates that can be separated by high performance thin-layer chromatography and visualised by fluorography.
(A) The T. brucei cell-free system was incubated with GlcNAc-PI (10 μM) in the presence of 0, 100, 300, or 1000 μM of 1 and 0.5 μCi of GDP-[^3H]-mannose to stimulate the production of radiolabelled mannosylated GPI intermediates. Glycolipid products were extracted, separated by high-performance thin-layer chromatography, and visualised by fluorography. DPM–dolichol-phosphate-mannose, M1–Man1GlcN-IPC18, M2–Man2GlcN-IPC18, M3–Man3GlcN-IPC18, A′–EtNPMan3GlcN-IPC18. (B) Inhibition of the turnover of GlcNAc-IPC18 (10 μM) by the presence of 1 measured in the T. brucei cell-free system in the LC–MS/MS assay.

[4] = test system: bloodstream form T. brucei; set-up: method as in PMID 986688, PMID 17126803; conditions: cited from earlier work
[5] = target: T1, recombinant T. brucei GlcNAc-PI de-N-acetylase (GST-TbGPI12); set-up: method as in PMID 22222041; conditions: previously reported glucocyclitol-phospholipid substrate analogue; cited from earlier work
[6] = 1 mM, cell-free system, Table 1, commercially available analogues of 1
[7] = 1 mM, fragment library screen, Table S1, footnote: cell-free system

Structure (SMILES) | inhibition at 1000 µM [1] [%] | melting point [°C] | further results
O=C(NO)c1cc(NC(=O)C2CCCCC2)ccc1O [compound 20, 5-(Cyclohexanecarboxamido)-N,2-dihydroxybenzamide] | 99 ± 1.6 | 229 to 230 | ligand efficiency [1]: −0.30 kcal mol^−1 per non-hydrogen atom
O=C(NO)c1ccccc1Br [compound 4] |  |  | inhibition at 1000 µM [1, 6]: -4 ± 15%
O=C(NO)c1cc(NC(=O)C2CCOCC2)ccc1O [compound 26, N-(4-Hydroxy-3-(hydroxycarbamoyl)phenyl)tetrahydro-2H-pyran-4-carboxamide] | 56 ± 8.3 | 209 | 
O=C(COc1ccc(Cl)cc1Cl)NO [compound 509] | 62 ± 0.3 |  | 
O=C(NO)c1ccc(Br)cc1 [compound 7] |  |  | inhibition at 1000 µM [1, 6]: 9.6 ± 15%
O=C(Nc1ccc(O)c(C(=O)NO)c1)c1ccccc1 [compound 21, 5-Benzamido-N,2-dihydroxybenzamide] | 96 ± 0.4 | 211 | ligand efficiency [1]: −0.29 kcal mol^−1 per non-hydrogen atom
O=C(NO)c1ccccc1O [compound 1, salicylic hydroxamic acid] | 97 ± 2 |  | IC50 [2]: 63 ± 4 µM; concentration that prevented priming of the cell-free system with GlcNAc-IPC18 [3]: > 300 µM; toxicity in vivo to bloodstream form T. brucei [4]: toxic in vivo
O=C(Nc1ccc(O)c(C(=O)NO)c1)c1ccc(-c2ccccc2)cc1 [compound 25, N-(4-Hydroxy-3-(hydroxycarbamoyl)phenyl)-[1,1'-biphenyl]-4-carboxamide] | 75 ± 7 | 216 | 
Nc1ccccc1C(=O)NO [compound 5] |  |  | inhibition at 1000 µM [1, 6]: -5 ± 2%
O=C(NO)c1ccc(Br)cc1O [compound 6] |  |  | inhibition at 1000 µM [1, 6]: 86 ± 2%
CCCCCCCCCCCCCCCCCC(=O)Nc1ccc(O)c(C(=O)NO)c1 [compound 23, N,2-Dihydroxy-5-stearamidobenzamide] | 25 ± 14 | 185 to 187 | 
O=C(NO)C1CCN(c2ncc(C(F)(F)F)cc2Cl)CC1 [compound 513] |  |  | inhibition at 1000 µM [1, 7]: 54 ± 4%
COc1ccc(NC(=O)NO)cc1 [compound 503] |  |  | inhibition at 1000 µM [1, 7]: 53 ± 2%
O=C(Nc1ccc(O)c(C(=O)NO)c1)c1ccc2c(c1)OCO2 [compound 27, N-(4-Hydroxy-3-(hydroxycarbamoyl)phenyl)benzo[d][1,3]dioxole-5-carboxamide] | 86 ± 11 | 209 | 
O=C(NO)c1ccccc1 [compound 3] |  |  | inhibition at 1000 µM [1, 6]: -6 ± 14%
CCCCCCCCCCCCCCCCCCOP(=O)(O)O[C@@H]1CCCC[C@H]1O[C@@H]1O[C@H](CO)[C@@H](O)[C@H](O)[C@H]1CC(=O)NO [1R,2R-1-O-[2-C-(carboxymethyl N-hydroxyamide)-2-deoxy-β-D-glucopyranosyl]-cyclohexanediol 2-(n-octadecylphosphate), reference compound] |  |  | IC50 [5]: 19 ± 0.5 µM; ligand efficiency ([2]; from the previously reported IC50 of ref 13): −0.13 kcal mol^−1 per non-hydrogen atom
CC(=O)N1CCC(C(=O)Nc2ccc(O)c(C(=O)NO)c2)CC1 [compound 24, 1-Acetyl-N-(4-hydroxy-3-(hydroxycarbamoyl)phenyl)piperidine-4-carboxamide] | 40 ± 17 | 211 to 212 | 
O=C(CCc1nc(-c2ccc(Cl)cc2)no1)NO [compound 514] |  |  | inhibition at 1000 µM [1, 7]: 54 ± 9%
Cc1ccc(C(=O)Nc2ccc(O)c(C(=O)NO)c2)cc1 [compound 22, N,2-Dihydroxy-5-(4-methylbenzamido)benzamide] | 62 ± 24 | 209 | 
O=C(CCCOc1ccc(Cl)cc1Cl)NO [compound 508] |  |  | inhibition at 1000 µM [1, 7]: 67 ± 20%
O=C(O)c1ccccc1O [compound 2] | 25 ± 1 |  | 
